Test results published in article PMC4172381 (Bioorganic & medicinal chemistry, 2014).

Assays:
[1] = molecular target: T1, human sEH (Homo sapiens, UniProt P34913); test: Fluorescent; assay type: biochemical; settings: for reduced inhibition compared to N,N,O-trimethylated oxyoxalamide derivatives: Conclusions, vs trimethylated derivatives (24, 26, 31); for improvement in inhibition in comparison with compound 27: ratio of IC50 vs compound 27; for drop in inhibition compared to compound 6: ratio of IC50 vs compound 6
T1 sequence (P34913 1-555): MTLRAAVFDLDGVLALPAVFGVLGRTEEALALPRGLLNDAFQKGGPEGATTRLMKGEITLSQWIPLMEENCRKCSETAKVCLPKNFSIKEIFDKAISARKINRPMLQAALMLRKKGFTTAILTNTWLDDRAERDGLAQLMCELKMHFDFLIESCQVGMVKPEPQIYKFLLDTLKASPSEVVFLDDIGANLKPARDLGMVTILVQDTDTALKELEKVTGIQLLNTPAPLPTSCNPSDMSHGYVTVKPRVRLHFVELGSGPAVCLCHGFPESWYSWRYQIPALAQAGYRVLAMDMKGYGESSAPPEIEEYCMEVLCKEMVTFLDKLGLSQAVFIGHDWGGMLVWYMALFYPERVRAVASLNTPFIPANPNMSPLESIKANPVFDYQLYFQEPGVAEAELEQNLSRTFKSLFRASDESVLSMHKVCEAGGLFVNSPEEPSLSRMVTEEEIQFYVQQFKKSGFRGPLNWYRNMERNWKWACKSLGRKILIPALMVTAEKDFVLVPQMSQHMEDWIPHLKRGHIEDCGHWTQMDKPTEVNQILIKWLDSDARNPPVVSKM

[2] = Water solubility by light scattering; assay type: physicochemical; settings: vs AUDA

Compound: O=C(NOCc1ccccc1)C(=O)NC1C2CC3CC(C2)CC1C3 (stereo not drawn) [Compound 6, N^1-(Adamant-2-yl)-N^2-(benzyloxy)oxalamide]
- inhibition potency lower compared to AUDA ([1]; ratio of IC50 vs AUDA): approximately 15 fold
- improvement in inhibition potency compared to compound 5 ([1]; ratio of IC50 vs compound 5): 16 fold

Compound: CONC(=O)C(=O)Nc1ccc(CNC(=O)NC23CC4CC(CC(C4)C2)C3)cc1 [Compound 28, 1-(4-(N^2-Methyloxyoxalamido)benzyl)-3-adamantylurea]
- reduced inhibition compared to N,N,O-trimethylated oxyoxalamide derivatives [1]: ≤ 10 fold
- improvement in inhibition in comparison with compound 27 [1]: 2.5 fold

Compound: CON(C)C(=O)C(=O)N(C)c1ccc(CNC(=O)NC23CC4CC(CC(C4)C2)C3)cc1 [Compound 31, 1-(4-(N^1-Methyl-N^2-methyl-N^2-(methyloxy)oxalamido)-benzyl)-3-adamantylurea]
- higher solubility in water than AUDA [2]: 10 fold
- improvement in inhibition in comparison with compound 27 [1]: 13 fold

Compound: O=C(NOC1CCCCO1)C(=O)Nc1ccc(CNC(=O)C23CC4CC(CC(C4)C2)C3)cc1 (stereo not drawn) [Compound 22, N-(4-(N^2-(Tetrahydro-2H-pyran-2-yloxy)oxalamido)benzyl) adamantanecarboxamide]
- inhibition of human sEH, result in words [1]: complete loss in inhibition

Compound: CON(C)C(=O)C(=O)Nc1ccc(CNC(=O)NC23CC4CC(CC(C4)C2)C3)cc1 [Compound 30, 1-(4-(N^2-Methyl-N^2-(methyloxy)oxalamido)benzyl)-3-adamantylurea]
- reduced inhibition compared to N,N,O-trimethylated oxyoxalamide derivatives [1]: ≤ 10 fold
- improvement in inhibition in comparison with compound 27 [1]: 3 fold

Compound: O=C(NCC12CC3CC(CC(C3)C1)C2)C(=O)NOCc1ccccc1 [Compound 5, N^1-(Adamant-1-ylmethyl)-N^2-(benzyloxy)oxalamide]
- inhibition of human sEH, result in words [1]: moderate inhibition

Compound: O=C(NOCc1ccccc1)C(=O)NC12CC3CC(CC(C3)C1)C2 [Compound 4, N^1-(Adamant-1-yl)-N^2-(benzyloxy)oxalamide]
- inhibition of human sEH, result in words [1]: not effective for producing inhibition activity

Compound: CN(OCc1ccccc1)C(=O)C(=O)NC1C2CC3CC(C2)CC1C3 (stereo not drawn) [Compound 13, N^1-(Adamant-2-yl)-N^2-(benzyloxy)-N^2-methyloxalamide]
- drop in inhibition compared to compound 6 [1]: approximately 60 fold

Compound: O=C(NOc1ccccc1)C(=O)NC1C2CC3CC(C2)CC1C3 (stereo not drawn) [Compound 7, N^1-(Adamant-2-yl)-N^2-(phenyloxy)oxalamide]
- inhibition of human sEH, result in words [1]: no inhibition

Compound: O=C(CNC1C2CC3CC(C2)CC1C3)NOCc1ccccc1 (stereo not drawn) [Compound 16, N-(Benzyloxy)-2-(adamant-2-ylamino)acetamide]
- inhibition of human sEH, result in words [1]: no inhibition

Compound: CON(C)C(=O)C(=O)N(C)c1ccc(CNC(=O)C23CC4CC(CC(C4)C2)C3)cc1 [Compound 21, N-(4-(N^1-Methyl-N^2-methyl-N^2-(methyloxy)oxalamido)-benzyl)adamantanecarboxamide]
- improved potency compared to O-methyl derivative (18) ([1]; ratio of IC50 vs compound 18): 1.5 fold

Compound: CC(C)(C)ONC(=O)C(=O)Nc1ccc(CNC(=O)C23CC4CC(CC(C4)C2)C3)cc1 [Compound 19, N-(4-(N^2-t-Butyloxyoxalamido)benzyl)adamantanecarboxamide]
- lowered inhibition compared to compound 18 ([1]; ratio of IC50 vs compound 18): 1.5 fold

Compound: CON(C)C(=O)C(=O)Nc1ccc(CNC(=O)C23CC4CC(CC(C4)C2)C3)cc1 [Compound 20, N-(4-(N^2-Methyl-N^2-(methyloxy)oxalamido)benzyl)adamantanecarboxamide]
- improved potency compared to O-methyl derivative (18) ([1]; ratio of IC50 vs compound 18): 1.5 fold

Compound: O=C(NOCCCc1ccccc1)C(=O)NC1C2CC3CC(C2)CC1C3 (stereo not drawn) [Compound 12, N^1-(Adamant-2-yl)-N^2-(3-phenylpropyloxy)oxalamide]
- drop in inhibition compared to compound 6 [1]: approximately 10 fold
- better inhibition than compound 11 ([1]; ratio of IC50 vs compound 11): approximately 8 fold

Compound: CONC(=O)C(=O)Nc1ccc(CNC(=O)C23CC4CC(CC(C4)C2)C3)cc1 [Compound 18, N-(4-(N^2-Methyloxyoxalamido)benzyl)adamantanecarboxamide]
- enhancement in inhibition compared to compound 17 ([1]; ratio of IC50 vs compound 17): ≥ 3 fold

Compound: O=C(NCCCc1ccccc1)C(=O)NOCc1ccccc1 [Compound 3, N^1-(Benzyloxy)-N^2-(3-phenylpropyl)oxalamide]
- inhibition of human sEH, result in words [1]: not effective for producing inhibition activity
